Results: ChEMBL document CHEMBL2321717, “Synthesis of novel estrogen receptor antagonists using metal-catalyzed coupling reactions and characterization of their biological activity” (J Med Chem, 2013)
Calls of active or inactive are those of the source. The calls are words filed in the database; no cut-off is given here.

Legend:
[1] = molecular target: Estrogen receptor alpha (Homo sapiens) (UniProt P03372); assay: Agonist activity at ERalpha receptor in human MCF7 cells assessed as stimulation of cell proliferation after 6 days by crystal violet staining method
[2] = molecular target: Estrogen receptor alpha (Homo sapiens) (UniProt P03372); assay: Agonist activity at ERalpha receptor in human HeLa cells assessed as activation of ERalpha-based transcription at 100 nM after 20 to 24 hrs by luciferase reporter gene assay
Estrogen receptor beta = Estrogen receptor beta (Homo sapiens, UniProt Q92731)
[3] = molecular target: Estrogen receptor alpha (Homo sapiens) (UniProt P03372); assay: Agonist activity at LBD of ERalpha receptor in human HeLa cells assessed as induction of receptor-SRC-1 interaction at 100 nM after 20 to 24 hrs by luciferase reporter gene assay
Estrogen receptor = molecular target: T1, Estrogen receptor (Homo sapiens, UniProt P03372)
T1 sequence (P03372 whole entry): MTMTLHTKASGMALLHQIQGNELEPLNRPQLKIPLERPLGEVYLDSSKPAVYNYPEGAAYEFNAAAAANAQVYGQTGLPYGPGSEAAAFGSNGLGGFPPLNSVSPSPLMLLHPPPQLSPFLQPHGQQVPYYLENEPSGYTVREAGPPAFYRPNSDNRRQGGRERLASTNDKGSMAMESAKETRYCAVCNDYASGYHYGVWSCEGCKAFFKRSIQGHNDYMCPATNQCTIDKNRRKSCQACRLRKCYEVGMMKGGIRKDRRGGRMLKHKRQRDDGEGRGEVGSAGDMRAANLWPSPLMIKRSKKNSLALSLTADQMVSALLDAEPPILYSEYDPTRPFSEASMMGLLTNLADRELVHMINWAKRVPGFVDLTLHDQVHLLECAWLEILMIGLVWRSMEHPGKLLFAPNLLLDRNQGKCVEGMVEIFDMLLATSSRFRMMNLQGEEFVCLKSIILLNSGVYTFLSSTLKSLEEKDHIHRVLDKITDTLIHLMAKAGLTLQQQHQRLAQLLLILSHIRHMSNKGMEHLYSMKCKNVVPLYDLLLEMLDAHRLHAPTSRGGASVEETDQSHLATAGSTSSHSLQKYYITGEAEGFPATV

[4] = molecular target: Estrogen receptor alpha (Homo sapiens) (UniProt P03372); assay: Antagonist activity at ERalpha receptor in human HeLa cells assessed as inhibition of E2-induced response after 20 to 24 hrs by luciferase reporter gene assay
[5] = molecular target: Estrogen receptor alpha (Homo sapiens) (UniProt P03372); assay: Agonist activity at ERalpha receptor in human HepG2 cells assessed as activation of ERalpha-based transcription at 100 nM after 20 to 24 hrs by luciferase reporter gene assay
MDA-MB-231 [6] = assay: Inhibition of cell proliferation in human ERalpha receptor negative MDA-MB-231 cells after 6 days by crystal violet staining method; assay type: functional, cell-based
[7] = molecular target: Estrogen receptor alpha (Homo sapiens) (UniProt P03372); assay: Partial agonist activity at ERalpha receptor in human HeLa cells assessed as activation of ERalpha-based transcription at 100 nM after 20 to 24 hrs by luciferase reporter gene assay
MDA-MB-231 [8] = assay: Stimulation of cell proliferation in human ERalpha receptor negative MDA-MB-231 cells after 6 days by crystal violet staining method; assay type: functional, cell-based

Chain of Estrogen receptor beta (Q92731 whole entry, the tested form may be a part): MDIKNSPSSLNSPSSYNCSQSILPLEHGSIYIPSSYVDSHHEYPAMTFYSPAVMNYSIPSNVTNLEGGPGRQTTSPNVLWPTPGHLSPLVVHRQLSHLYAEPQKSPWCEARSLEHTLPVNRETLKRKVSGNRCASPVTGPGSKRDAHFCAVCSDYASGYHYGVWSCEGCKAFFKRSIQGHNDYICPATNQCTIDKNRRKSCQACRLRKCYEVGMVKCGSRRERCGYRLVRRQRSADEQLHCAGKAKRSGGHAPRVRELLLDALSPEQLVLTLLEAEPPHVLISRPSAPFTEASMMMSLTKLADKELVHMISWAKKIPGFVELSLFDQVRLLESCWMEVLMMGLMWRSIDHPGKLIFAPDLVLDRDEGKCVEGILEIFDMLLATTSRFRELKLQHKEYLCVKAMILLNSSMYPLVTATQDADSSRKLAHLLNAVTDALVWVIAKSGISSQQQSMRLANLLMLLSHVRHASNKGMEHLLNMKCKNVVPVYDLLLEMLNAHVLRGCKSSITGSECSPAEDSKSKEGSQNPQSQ

CCOC(=O)C(Cc1ccc(C#CCCCC[C@@H]2Cc3cc(O)ccc3[C@H]3CC[C@]4(C)[C@@H](O)CC[C@H]4[C@H]23)cc1)C(=O)OCC
Activity [1]: Active | Activity [2]: Active | IC50 (Estrogen receptor beta): 151 nM | Activity [3]: Active | IC50 (Estrogen receptor): 126 nM

C[C@]12CC[C@@H]3c4ccc(O)cc4C[C@@H](CCCCC#Cc4ccc(-n5cccc5)cc4)[C@H]3[C@@H]1CC[C@@H]2O
Activity [1]: Active | Activity [2]: Active | Activity [3]: Active | IC50 (Estrogen receptor): 28.3 nM

C[C@]12CC[C@@H]3c4ccc(O)cc4C[C@@H](CCCCc4cn(CC5COc6ccccc6O5)nn4)[C@H]3[C@@H]1CC[C@@H]2O (some centres not stated)
Activity [4]: Active | IC50 (Estrogen receptor beta): 41.2 nM | IC50 (Estrogen receptor): 24.4 nM | Activity [5]: 50%

C[C@]12CC[C@@H]3c4ccc(O)cc4C[C@@H](CCCCC#Cc4ccc(CN5CCCCC5)cc4)[C@H]3[C@@H]1CC[C@@H]2O
Activity [1]: Active | Activity [2]: Active | Activity [3]: Active | IC50 (Estrogen receptor): 638 nM

CC(C)(C)OC(=O)N1CCN(c2ccc(C#CCCCC[C@@H]3Cc4cc(O)ccc4[C@H]4CC[C@]5(C)[C@@H](O)CC[C@H]5[C@H]34)cc2)CC1
Activity [2]: Active | IC50 (Estrogen receptor beta): 436 nM | IC50 (Estrogen receptor): 567 nM | Activity (MDA-MB-231 [6]): inactive | Activity [7]: Active | Activity (MDA-MB-231 [8]): inactive

C[C@]12CC[C@@H]3c4ccc(O)cc4C[C@@H](CCCCC#Cc4ccc(-c5ccno5)cc4)[C@H]3[C@@H]1CC[C@@H]2O
Activity [2]: Active | Activity (MDA-MB-231 [6]): inactive | Activity [5]: 50% | Activity [7]: Active | Activity (MDA-MB-231 [8]): inactive

C[C@]12CC[C@@H]3c4ccc(O)cc4C[C@@H](CCCCC#Cc4ccc5ccccc5c4)[C@H]3[C@@H]1CC[C@@H]2O
Activity [1]: Active | Activity [2]: Active | Activity [3]: Active | IC50 (Estrogen receptor): 176 nM

CCOC(=O)CC(=O)c1ccc(C#CCCCC[C@@H]2Cc3cc(O)ccc3[C@H]3CC[C@]4(C)[C@@H](O)CC[C@H]4[C@H]23)cc1
Activity [1]: Active | Activity [2]: Active | IC50 (Estrogen receptor beta): 185 nM | Activity [3]: Active | IC50 (Estrogen receptor): 96.5 nM
